According to ChEMBL document CHEMBL4130562, “Design, Synthesis, and Antibacterial Evaluation of Oxazolidinones with Fused Heterocyclic C-Ring Substructure” (ACS Med Chem Lett, 2017):
In brackets after ≈: the same amount, converted by molar mass.

What was measured:
Assay type in all cases: functional
[1] = tested on: Staphylococcus aureus; experiment: Antibacterial activity against Staphylococcus aureus ATCC 6538P by microbroth dilution method
[2] = tested on: Staphylococcus aureus; experiment: Antibacterial activity against Staphylococcus aureus ATCC 33591 by microbroth dilution method
[3] = tested on: Staphylococcus aureus; experiment: Antibacterial activity against Staphylococcus aureus ATCC 29213 by microbroth dilution method
[4] = tested on: Staphylococcus aureus; experiment: Antibacterial activity against methicillin-resistant Staphylococcus aureus 1201984 by microbroth dilution method
[5] = tested on: Staphylococcus aureus; experiment: Antibacterial activity against linezolid-resistant Staphylococcus aureus by microbroth dilution method
[6] = tested on: Enterococcus faecalis; experiment: Antibacterial activity against Enterococcus faecalis ATCC 29212 by microbroth dilution method
[7] = tested on: Enterococcus faecium; experiment: Antibacterial activity against Enterococcus faecium 19434 by microbroth dilution method
[8] = tested on: Streptococcus pneumoniae; experiment: Antibacterial activity against Streptococcus pneumoniae 55143 by microbroth dilution method
[9] = tested on: Streptococcus pyogenes; experiment: Antibacterial activity against Streptococcus pyogenes ATCC 19615 by microbroth dilution method
[10] = tested on: Staphylococcus epidermidis; experiment: Antibacterial activity against Staphylococcus epidermidis ATCC 14990 by microbroth dilution method
[11] = tested on: Haemophilus influenzae; experiment: Antibacterial activity against Haemophilus influenzae ATCC 49247 by microbroth dilution method

| SMILES | MIC [1] [mg/L] | MIC [2] [mg/L] | MIC [3] [mg/L] | MIC [4] [mg/L] | MIC [5] [mg/L] | MIC [6] [mg/L] | MIC [7] [mg/L] | MIC [8] [mg/L] | MIC [9] [mg/L] | MIC [10] [mg/L] | MIC [11] [mg/L] |
| --- | --- | --- | --- | --- | --- | --- | --- | --- | --- | --- | --- |
| COC(=O)NC[C@H]1CN(c2ccc(-c3ccc4c(c3)NC(=O)CO4)c(F)c2)C(=O)O1 | 0.06 (≈ 0.144 µM) | 0.125 (≈ 0.301 µM) | 0.125 (≈ 0.301 µM) | 0.06 (≈ 0.144 µM) | 0.5 (≈ 1.2 µM) | 0.06 (≈ 0.144 µM) | 0.06 (≈ 0.144 µM) | 0.06 (≈ 0.144 µM) | 0.06 (≈ 0.144 µM) | 0.06 (≈ 0.144 µM) | 0.125 (≈ 0.301 µM) |
| Cl.NC[C@H]1CN(c2ccc(-c3ccc4c(c3)NC(=O)CO4)c(F)c2)C(=O)O1 | 4 | 16 | 8 | 8 | > 32 | 8 | 4 | 4 | 4 | 4 | 4 |
| CC(=S)NC[C@H]1CN(c2ccc(-c3ccc4c(c3)NC(=O)CO4)c(F)c2)C(=O)O1 | 0.06 (≈ 0.144 µM) | 0.125 (≈ 0.301 µM) | 0.06 (≈ 0.144 µM) | 0.06 (≈ 0.144 µM) | 0.125 (≈ 0.301 µM) | 0.06 (≈ 0.144 µM) | 0.06 (≈ 0.144 µM) | 0.06 (≈ 0.144 µM) | 0.06 (≈ 0.144 µM) | 0.06 (≈ 0.144 µM) | 0.125 (≈ 0.301 µM) |
| O=C1COc2c(cccc2-c2ccc(N3C[C@H](CO)OC3=O)cc2F)N1 | 8 (≈ 22.3 µM) | 4 (≈ 11.2 µM) | 2 (≈ 5.58 µM) | 8 (≈ 22.3 µM) | > 32 | 16 (≈ 44.7 µM) | 32 (≈ 89.3 µM) | 8 (≈ 22.3 µM) | 8 (≈ 22.3 µM) | 2 (≈ 5.58 µM) | 1 (≈ 2.79 µM) |
| CCC(=O)NC[C@H]1CN(c2ccc(-c3ccc4c(c3)NC(=O)CO4)c(F)c2)C(=O)O1 | 0.125 (≈ 0.302 µM) | 0.25 (≈ 0.605 µM) | 0.25 (≈ 0.605 µM) | 0.5 (≈ 1.21 µM) | 1 (≈ 2.42 µM) | 0.25 (≈ 0.605 µM) | 0.06 (≈ 0.145 µM) | 0.5 (≈ 1.21 µM) | 0.25 (≈ 0.605 µM) | 0.125 (≈ 0.302 µM) | 0.25 (≈ 0.605 µM) |
| O=C1COc2cccc(-c3ccc(N4C[C@H](CO)OC4=O)cc3F)c2N1 | > 32 | > 32 | > 32 | > 32 | > 32 | > 32 | > 32 | > 32 | > 32 | > 32 | > 32 |
| Cc1nc2ccc(-c3ccc(N4C[C@H](CO)OC4=O)cc3F)cc2c(=O)[nH]1 | 0.125 (≈ 0.338 µM) | 0.5 (≈ 1.35 µM) | 0.25 (≈ 0.677 µM) | 0.25 (≈ 0.677 µM) | 2 (≈ 5.41 µM) | 0.5 (≈ 1.35 µM) | 0.25 (≈ 0.677 µM) | 0.25 (≈ 0.677 µM) | 0.25 (≈ 0.677 µM) | 0.125 (≈ 0.338 µM) | 0.5 (≈ 1.35 µM) |
| O=C1NCCOc2ccc(-c3ccc(N4C[C@H](CO)OC4=O)cc3F)cc21 | 0.25 (≈ 0.671 µM) | 1 (≈ 2.69 µM) | 0.5 (≈ 1.34 µM) | 0.5 (≈ 1.34 µM) | 4 (≈ 10.7 µM) | 0.5 (≈ 1.34 µM) | 0.5 (≈ 1.34 µM) | 0.5 (≈ 1.34 µM) | 0.5 (≈ 1.34 µM) | 0.25 (≈ 0.671 µM) | 1 (≈ 2.69 µM) |
| O=C1O[C@@H](CO)CN1c1ccc(-c2ccc3oc(=O)[nH]c3c2)c(F)c1 | 0.25 (≈ 0.726 µM) | 32 (≈ 92.9 µM) | 1 (≈ 2.9 µM) | 32 (≈ 92.9 µM) | 4 (≈ 11.6 µM) | 0.5 (≈ 1.45 µM) | 0.25 (≈ 0.726 µM) | 0.125 (≈ 0.363 µM) | 0.125 (≈ 0.363 µM) | < 0.06 | 4 (≈ 11.6 µM) |
| O=C1COc2ccc(-c3ccc(N4C[C@H](CNC(=O)C5CCC5)OC4=O)cc3F)cc2N1 | 0.125 (≈ 0.284 µM) | 0.5 (≈ 1.14 µM) | 0.5 (≈ 1.14 µM) | 0.5 (≈ 1.14 µM) | 2 (≈ 4.55 µM) | 0.06 (≈ 0.137 µM) | 0.06 (≈ 0.137 µM) | 1 (≈ 2.28 µM) | 1 (≈ 2.28 µM) | 0.25 (≈ 0.569 µM) | 1 (≈ 2.28 µM) |
| O=C1O[C@@H](CO)CN1c1ccc(-c2ccc3c(c2)NC(=O)C2(CC2)O3)c(F)c1 | < 0.06 | 0.5 (≈ 1.3 µM) | 0.25 (≈ 0.65 µM) | < 0.06 | 2 (≈ 5.2 µM) | 0.125 (≈ 0.325 µM) | < 0.06 | 0.25 (≈ 0.65 µM) | 0.25 (≈ 0.65 µM) | < 0.06 | 0.5 (≈ 1.3 µM) |
| CS(=O)(=O)NC[C@H]1CN(c2ccc(-c3ccc4c(c3)NC(=O)CO4)c(F)c2)C(=O)O1 | 0.25 (≈ 0.574 µM) | 1 (≈ 2.3 µM) | 8 (≈ 18.4 µM) | 1 (≈ 2.3 µM) | 8 (≈ 18.4 µM) | 0.25 (≈ 0.574 µM) | 0.125 (≈ 0.287 µM) | 0.25 (≈ 0.574 µM) | 0.25 (≈ 0.574 µM) | 0.5 (≈ 1.15 µM) | 0.5 (≈ 1.15 µM) |
| O=C1O[C@@H](CO)CN1c1ccc(-c2ccc3c(c2)OCCO3)c(F)c1 | 1 (≈ 2.9 µM) | 32 (≈ 92.7 µM) | 4 (≈ 11.6 µM) | 32 (≈ 92.7 µM) | > 32 | 4 (≈ 11.6 µM) | 2 (≈ 5.79 µM) | 0.5 (≈ 1.45 µM) | 0.5 (≈ 1.45 µM) | 0.06 (≈ 0.174 µM) | 8 (≈ 23.2 µM) |
